# Data: PubChem BioAssay (NCI)
#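 Tested at 5 concentrations; 48 h exposure; 96-well plates; endpoints linearly interpolated, else capped at highest concentration. Abbreviation: GI50, concentration required for 50% inhibition of growth. TGI: total growth inhibition.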
# Experiments:
# Experiment in all cases: inhibition of tumour cell growth, NCI panel, 48 h
# [1] = system: HCT-116 colon
# [2] = system: UO-31 renal
# [3] = system: SNB-19 CNS
# [4] = system: HOP-92 NSCLC
# [5] = system: COLO 205 colon
# [6] = system: SK-MEL-5 melanoma
# [7] = system: MOLT-4 leukemia
# [8] = system: SK-MEL-2 melanoma
# [9] = system: UACC-257 melanoma
# [10] = system: HCC-2998 colon
# [11] = system: RXF 393 renal
# [12] = system: K-562 leukemia
# [13] = system: OVCAR-4 ovarian
# [14] = system: ACHN renal
# [15] = system: NCI-H23 lung
# [16] = system: HCT-15 colon
# [17] = system: BT-549 breast
# [18] = system: NCI-H226 lung
# [19] = system: KM12 colon
# [20] = system: T-47D breast
# [21] = system: PC-3 prostate
# [22] = system: UACC-62 melanoma
# [23] = system: EKVX NSCLC
# [24] = system: SR leukemia
# [25] = system: SW-620 colon
# [26] = system: HL-60(TB) leukemia
# [27] = system: A549 NSCLC
# [28] = system: LOX IMVI melanoma
# [29] = system: MALME-3M melanoma
# [30] = system: MCF7 breast
# [31] = system: A498 renal
# [32] = system: IGROV1 ovarian
# [33] = system: HT29 colon
# [34] = system: SF-268 CNS
# [35] = system: HOP-62 NSCLC
# [36] = system: 786-0 renal
# [37] = system: CCRF-CEM leukemia
# [38] = system: U251 CNS
# [39] = system: SK-OV-3 ovarian
# [40] = system: NCI/ADR-RES ovarian
# [41] = system: SNB-75 CNS
# [42] = system: SF-295 CNS
# [43] = system: SK-MEL-28 melanoma
# [44] = system: SF-539 CNS
# [45] = system: SN12C renal
# [46] = system: OVCAR-8 ovarian
# [47] = system: MDA-MB-231 breast
# [48] = system: TK-10 renal
# [49] = system: M14 melanoma
# [50] = system: NCI-H522 lung
# [51] = system: OVCAR-3 ovarian
# [52] = system: OVCAR-5 ovarian
# [53] = system: NCI-H460 lung
# [54] = system: MDA-MB-435
# [55] = system: RPMI-8226 leukemia
# [56] = system: CAKI-1 renal
# [57] = system: DU-145 prostate
structure (smiles),measurement,setting,value
CCN1CCN(c2nc(C)cc(N(CCCNc3ccnc4cc(Cl)ccc34)Cc3ccc4c(c3)OCO4)n2)CC1,GI50,[1],1.1 µM
same,TGI,[1],3.02 µM
same,GI50,[2],1.31 µM
same,TGI,[2],2.64 µM
same,GI50,[3],2.98 µM
same,TGI,[3],11.3 µM
same,GI50,[4],1.15 µM
same,TGI,[4],3.1 µM
same,GI50,[5],1.7 µM
same,TGI,[5],3.46 µM
same,GI50,[6],1.66 µM
same,TGI,[6],3.05 µM
same,GI50,[7],1.2 µM
same,TGI,[7],4.35 µM
same,GI50,[8],1.83 µM
same,TGI,[8],3.5 µM
same,GI50,[9],1.8 µM
same,TGI,[9],3.49 µM
same,GI50,[10],1.62 µM
same,TGI,[10],3.85 µM
same,GI50,[11],1.54 µM
same,TGI,[11],3.12 µM
same,GI50,[12],0.361 µM
same,TGI,[12],1.51 µM
same,GI50,[13],1.75 µM
same,TGI,[13],7.12 µM
same,GI50,[14],2.03 µM
same,TGI,[14],4.15 µM
same,GI50,[15],2.61 µM
same,TGI,[15],10.1 µM
same,GI50,[16],1.07 µM
same,TGI,[16],3.16 µM
same,GI50,[17],1.78 µM
same,TGI,[17],3.7 µM
same,GI50,[18],5.36 µM
same,TGI,[18],24.4 µM
same,GI50,[19],2.42 µM
same,TGI,[19],10.8 µM
same,GI50,[20],2.04 µM
same,TGI,[20],4.53 µM
same,GI50,[21],2.43 µM
same,TGI,[21],11 µM
same,GI50,[22],1.81 µM
same,TGI,[22],3.32 µM
same,GI50,[23],2.6 µM
same,TGI,[23],10.9 µM
same,GI50,[24],0.339 µM
same,TGI,[24],1.58 µM
same,GI50,[25],1.4 µM
same,TGI,[25],3.12 µM
same,GI50,[26],2.11 µM
same,TGI,[26],3.96 µM
same,GI50,[27],1.97 µM
same,TGI,[27],7.42 µM
same,GI50,[28],1.62 µM
same,TGI,[28],3.18 µM
same,GI50,[29],1.77 µM
same,TGI,[29],3.34 µM
same,GI50,[30],1.58 µM
same,TGI,[30],10.2 µM
same,GI50,[31],1.38 µM
same,TGI,[31],4.23 µM
same,GI50,[32],1.61 µM
same,TGI,[32],5.06 µM
same,GI50,[33],1.07 µM
same,TGI,[33],2.64 µM
same,GI50,[34],1.62 µM
same,TGI,[34],4.06 µM
same,GI50,[35],1.46 µM
same,TGI,[35],4.09 µM
same,GI50,[36],1.46 µM
same,TGI,[36],2.95 µM
same,GI50,[37],1.81 µM
same,TGI,[37],7.14 µM
same,GI50,[38],1.56 µM
same,TGI,[38],3.17 µM
same,GI50,[39],2.58 µM
same,TGI,[39],6.7 µM
same,GI50,[40],2.63 µM
same,TGI,[40],10.1 µM
same,GI50,[41],1.48 µM
same,TGI,[41],3.1 µM
same,GI50,[42],1.81 µM
same,TGI,[42],3.39 µM
same,GI50,[43],1.61 µM
same,TGI,[43],3.11 µM
same,GI50,[44],1.63 µM
same,TGI,[44],3.07 µM
same,GI50,[45],2.03 µM
same,TGI,[45],5.55 µM
same,GI50,[46],2.12 µM
same,TGI,[46],6.06 µM
same,GI50,[47],1.2 µM
same,TGI,[47],2.9 µM
same,GI50,[48],1.74 µM
same,TGI,[48],3.21 µM
same,GI50,[49],1.8 µM
same,TGI,[49],3.38 µM
same,GI50,[50],1.66 µM
same,TGI,[50],3.39 µM
same,GI50,[51],1.61 µM
same,TGI,[51],3.96 µM
same,GI50,[52],2.57 µM
same,TGI,[52],7.77 µM
same,GI50,[53],1.53 µM
same,TGI,[53],3.54 µM
same,GI50,[54],1.56 µM
same,TGI,[54],3.06 µM
same,GI50,[55],0.794 µM
same,TGI,[55],3.02 µM
O=C1Nc2ccc(Br)cc2C12CC(c1ccccc1)=NN2 (stereo not drawn),GI50,[1],4.27 µM
same,TGI,[1],17 µM
same,GI50,[2],4.46 µM
same,TGI,[2],> 100 µM
same,GI50,[3],9.25 µM
same,TGI,[3],> 100 µM
same,GI50,[4],1.66 µM
same,TGI,[4],26.2 µM
same,GI50,[5],3.79 µM
same,TGI,[5],15.2 µM
same,GI50,[6],3.2 µM
same,TGI,[6],14.1 µM
same,GI50,[7],5.04 µM
same,TGI,[7],30.5 µM
same,GI50,[8],4.48 µM
same,TGI,[8],25.6 µM
same,GI50,[9],5.98 µM
same,TGI,[9],> 100 µM
same,GI50,[10],15.9 µM
same,TGI,[10],65.1 µM
same,GI50,[11],2.14 µM
same,TGI,[11],6.05 µM
same,GI50,[12],2.84 µM
same,TGI,[12],31 µM
same,GI50,[13],5.31 µM
same,TGI,[13],77.6 µM
same,GI50,[14],7.96 µM
same,TGI,[14],> 100 µM
same,GI50,[15],5.43 µM
same,TGI,[15],77.2 µM
same,GI50,[56],2.8 µM
same,TGI,[56],16.6 µM
same,GI50,[16],3.56 µM
same,TGI,[16],48.8 µM
same,GI50,[17],13 µM
same,TGI,[17],74.3 µM
same,GI50,[18],6.93 µM
same,TGI,[18],> 100 µM
same,GI50,[19],3.86 µM
same,TGI,[19],38.8 µM
same,GI50,[20],5.48 µM
same,TGI,[20],> 100 µM
same,GI50,[21],2.28 µM
same,TGI,[21],18.4 µM
same,GI50,[22],5.38 µM
same,TGI,[22],27.1 µM
same,GI50,[24],2.88 µM
same,TGI,[24],19.5 µM
same,GI50,[25],3.87 µM
same,TGI,[25],23.8 µM
same,GI50,[26],2.77 µM
same,TGI,[26],8.47 µM
same,GI50,[27],4.53 µM
same,TGI,[27],> 100 µM
same,GI50,[28],7.21 µM
same,TGI,[28],22.9 µM
same,GI50,[29],2.04 µM
same,TGI,[29],6.93 µM
same,GI50,[30],2.48 µM
same,TGI,[30],64.5 µM
same,GI50,[31],2.24 µM
same,TGI,[31],8.38 µM
same,GI50,[32],3.51 µM
same,TGI,[32],29.3 µM
same,GI50,[33],4.08 µM
same,TGI,[33],13 µM
same,GI50,[34],9.25 µM
same,TGI,[34],> 100 µM
same,GI50,[35],6.17 µM
same,TGI,[35],> 100 µM
same,GI50,[57],3.35 µM
same,TGI,[57],16.4 µM
same,GI50,[36],5.66 µM
same,TGI,[36],48.5 µM
same,GI50,[37],3.67 µM
same,TGI,[37],37.7 µM
same,GI50,[38],3.84 µM
same,TGI,[38],19.2 µM
same,GI50,[39],4.44 µM
same,TGI,[39],87.3 µM
same,GI50,[40],3.89 µM
same,TGI,[40],35.8 µM
same,GI50,[41],1.35 µM
same,TGI,[41],6.91 µM
same,GI50,[42],2.77 µM
same,TGI,[42],9.5 µM
same,GI50,[43],7.48 µM
same,TGI,[43],> 100 µM
same,GI50,[44],2.1 µM
same,TGI,[44],6.02 µM
same,GI50,[45],6.8 µM
same,TGI,[45],51.2 µM
same,GI50,[46],5.7 µM
same,TGI,[46],39.2 µM
same,GI50,[47],6.19 µM
same,TGI,[47],29.5 µM
same,GI50,[49],3.25 µM
same,TGI,[49],> 100 µM
same,GI50,[50],3.56 µM
same,TGI,[50],9.43 µM
same,GI50,[51],3.26 µM
same,TGI,[51],13.9 µM
same,GI50,[52],16.7 µM
same,TGI,[52],> 100 µM
same,GI50,[53],3.76 µM
same,TGI,[53],19.4 µM
same,GI50,[55],3.07 µM
same,TGI,[55],12.2 µM
